Results as given in PMC6265791, “Neuroprotective Activity of Some Marine Fungal Metabolites in the 6-Hydroxydopamin- and Paraquat-Induced Parkinson’s Disease Models” (Marine Drugs, 2018).
“Also recorded” adds a separate entry of the source. Read-outs that look alike come from different tables or passages of the source.

Columns and labels:
[1] = test system: ROS formation in Neuro2a cells treated with 6-OHDA; assay: ROS level analysis in 6-OHDA-treated cells; type: cell-based; conditions: for Reduction of ROS level in 6-OHDA-treated cells / Effect on ROS formation in 6-OHDA-treated cells: 10 µM, 6-OHDA 50 µM, 30 min
Protocol: (§1) Cell suspensions (1 × 10^3 cells/well) were incubated with compound solutions (10 µM) for 1 h. Then, 6-OHDA at a concentration of 50 µM was added in each well, and cells were incubated for 30 min. In other experiments, cells were incubated with PQ at a concentration of 500 µM for 30 min and 1 h. Cells incubated without 6-OHDA/PQ and compounds, and with 6-OHDA/PQ only, were used as positive and negative controls, respectively. To study ROS formation, 20 µL of 2,7-dichlorodihydrofluorescein diacetate solution (Molecular Probes, Eugene, OR, USA) was added to each well, such that the final concentration was […], and the microplate was incubated for an additional 10 min at 37 °C. The intensity of dichlorofluorescein fluorescence was measured with plate reader PHERAstar FS (BMG Labtech, Ortenberg, Germany) at λex = 485 nm, and λem = 518 nm. The data were processed by MARS Data Analysis v. 3.01R2 (BMG Labtech, Ortenberg, Germany). The results were presented as a percentage of positive control data.

[2] = cited from earlier work
[3] = DPPH radical scavenger assay (cell-free); conditions: for DPPH radicals scavenged: 100 µM
Protocol: DPPH radical scavenging activity of compounds was tested as described.
Compounds were dissolved in MeOH, and the solutions (160 µL) were dispensed into wells of a 96-well microplate. In all, 40 µL of the DPPH (Sigma-Aldrich, Steinheim, Germany) solution in MeOH (1.5 × 10^−4 M) was added to each well. Concentrations of compounds in mixture were 10 and 100 µM. The mixture was shaken and left to stand for 30 min, and the absorbance of the resulting solution was measured at 520 nm with a microplate reader MultiscanFC (ThermoScientific, Waltham, MA, USA). Radical scavenging activity of all compounds at 100 µM were presented as percent of MeOH data, and the concentration of DPPH radical scavenging at 50% (EC50) was calculated for some compounds.

[4] = test system: neuroblastoma Neuro2a cells; assay: Cell viability (cytotoxicity) assay, MTT; type: cell-based; conditions: up to 100 µM
Protocol: (§2) The neuroblastoma cell line Neuro2a was purchased from ATCC. Cells were cultured in DMEM medium containing 10% fetal bovine serum (Biolot, St. Petersburg, Russia) and 1% penicillin/streptomycin (Invitrogen, Carlsbad, CA, USA). Cells were incubated at 37 °C in a humidified atmosphere containing 5% (v/v) CO2.
(§3) Cell suspension (1 × 10^3 cells/well) was incubated with different concentration of compounds for 24 h. After that, cell viability was determined using the MTT (3-(4,5-dimethylthiazol-2-yl)-2,5- diphenyltetrazolium bromide) method, according to the manufacturer’s instructions (Sigma-Aldrich, St. Louis, MO, USA). The results were presented as percent of control data, and concentration required for 50% inhibition of cell viability (IC50) was calculated.

[5] = Cell viability (cytotoxicity) assay, MTT; type: cell-based; conditions: mouse, Neuro2a neuroblastoma cells; Neuro2a cells, 24 h, MTT
Protocol: as §2, §3

[6] = test system: ROS formation in Neuro2a cells treated with paraquat (PQ); assay: ROS level analysis in PQ-treated cells; type: cell-based; conditions: for Decrease of ROS formation in PQ-treated cells: added 1 h before PQ (500 µM, 1 h); for Effect on ROS formation in PQ-treated cells: added 1 h before PQ (500 µM)
Protocol: as §1, with “Cell suspensions (1 × 10^3 cells/well) were incubated with compound solutions (10 µM) for 1 h.” left out

[7] = test system: PC12 cells; conditions: pre-treating for 3 h; cited from earlier work
[8] = test system: Neuro2a cells treated with 6-OHDA; assay: 6-Hydroxydopamine-induced in vitro model of Parkinson's disease, cell viability (MTT); type: cell-based; conditions: for Effect on 6-OHDA-treated cell viability: 10 µM; for Neuroprotective effect in 6-OHDA model at tenfold reduced concentration: 1 µM (concentration reduced tenfold)
Protocol: The neuroprotective activities of compounds in 6-hydroxydopamine-induced cell model of Parkinson’s disease were examined, as described previously.
Neuroblastoma Neuro2a line cells (1 × 10^3 cells/well) were treated with 50 µM of 6-hydroxydopamine (Sigma-Aldrich, St. Louis, MO, USA) for 1 h and, after that, the investigated compounds were added to the neuroblastoma cell suspension at a concentration of 1 and 10 µM. In the other case, the substances were added to the cells 1 h before the addition of the neurotoxin. Cells incubated without 6-OHDA and compounds, and with 6-OHDA only, were used as positive and negative controls, respectively. After 24 h, viability of cells was measured using the MTT method. The results were presented as a percent of positive control data.

[9] = test system: MPTP-treated neuroblastoma cells; conditions: cited from earlier work
[10] = test system: Neuro2a cells treated with PQ; assay: Paraquat-induced in vitro model of Parkinson's disease, cell viability (MTT); type: cell-based; conditions: added 1 h before PQ (500 µM)
Protocol: Neuroblastoma Neuro2a line cells (1 × 10^3 cells/well) were treated with compounds at concentrations of 1 and 10 µM for 1 h, and then 500 µM of paraquat (Sigma-Aldrich, St. Louis, MO, USA) was added to the neuroblastoma cell suspension. Cells incubated without paraquat and compounds, and with paraquat only, were used as positive and negative controls, respectively. The viability of cells was measured after 24 h using the MTT method. The results were presented as percent of positive control data.

[11] = cited from earlier work; remark: listed apart in the source
[12] = test system: P-388 tumor cells; conditions: read-out: Cytotoxic activity IC50; cited from earlier work
[13] = test system: A-549 tumor cells; conditions: read-out: Cytotoxic activity IC50; cited from earlier work
[14] = test system: HL-60 tumor cells; conditions: read-out: Cytotoxic activity IC50; cited from earlier work
[15] = test system: KB tumor cells; conditions: read-out: Cytotoxic activity IC50; cited from earlier work
[16] = test system: A 549 tumor cells; conditions: read-out: Cytotoxic activity IC50; cited from earlier work
[17] = test system: osteoclast differentiation; conditions: cited from earlier work
[18] = test system: Candida albicans; conditions: cited from earlier work
[19] = test system: dopaminergic neuronal cell death in mouse PD model, nigral neurons, SH-SY5Y cells; conditions: cited from earlier work
[20] = test system: PC12 cells; conditions: cited from earlier work
[21] = compound added 1 h after 6-OHDA
[22] = compound added 1 h before 6-OHDA
[23] = read-out: DPPH scavenger activity IC50

## NCCc1cc(O)c(O)cc1O [6-OHDA, 6-hydroxydopamine, reference compound]
[1]; 30 min after addition to the cell suspension
  Increase of ROS level in Neuro2a cells by the neurotoxin: 30%

## COc1c(-c2ccc(O)c(O)c2)cc(OC)c2c1oc1cc(O)c(O)cc12 [Candidusin B, reference compound]
[2]; 100 µg/mL
  DPPH radical scavenging: 59%

## CC(=O)NCC(=O)c1c[nH]c2cc(O)ccc12 [Compound 1, 6-hydroxy-N-acetyl-β-oxotryptamine]
[3]
  DPPH radicals scavenged: 48%
[4]
  Cytotoxicity against Neuro2a cells: not cytotoxic; also recorded: non-cytotoxic
[5]
  IC50 at 24 h: > 100 µM
[1]
  Reduction of ROS level in 6-OHDA-treated cells: 18%
[6]; 10 µM
  Decrease of ROS formation in PQ-treated cells: 35%

## COc1ccc2[nH]cc(CCNC(C)=O)c2c1 [Compound 1a, Melatonin, reference compound]
[7]
  Viability of PC12 cells in 6-OHDA-induced PD model: increased viability of the cells, and prevented apoptosis
[8]; [21]
  Effect on 6-OHDA-treated cell viability: did not increase the viability
[8]; [22]
  Effect on 6-OHDA-treated cell viability: did not increase the viability; also recorded: ineffective
[1]
  Effect on ROS formation in 6-OHDA-treated cells: decreased ROS formation in the 6-OHDA-treated neuronal cell stronger in comparison with 1
[9]
  Caspase-3 enzyme activity, DNA fragmentation factor 45 cleavage and DNA fragmentation: diminished
[6]; 10 µM
  Decrease of ROS formation in PQ-treated cells: 22%

## Cc1cc(O)c(C)c(O)c1C(=O)O [Compound 2, 3-methylorsellinic acid]
[3]
  DPPH radicals scavenged: 10%
[4]
  Cytotoxicity against Neuro2a cells: not cytotoxic; also recorded: non-cytotoxic
[5]
  IC50 at 24 h: > 100 µM
[10]
  Effect on viability of PQ-treated cells: did not exhibit any protective effect
[8]; [21]
  Effect on 6-OHDA-treated cell viability: no neuroprotective effect
[1]
  Reduction of ROS level in 6-OHDA-treated cells: 30%
[6]
  Effect on ROS formation in PQ-treated cells: reduced ROS formation

## COc1cc(O)c(C)c2c1COC(C)C2 (stereo not drawn) [Compound 3, 8-methoxy-3,5-dimethylisochroman-6-ol]
[4]
  Cytotoxicity against Neuro2a cells: not cytotoxic; also recorded: non-cytotoxic
[5]
  IC50 at 24 h: > 100 µM
[11]
  DPPH Radical Scavenging % at 100 µM: 62.0 ± 4.6 [16] %
[10]
  Effect on viability of PQ-treated cells: did not exhibit any protective effect
[1]
  Reduction of ROS level in 6-OHDA-treated cells: 45%
[6]
  Effect on ROS formation in PQ-treated cells: reduced ROS formation

## COc1c(-c2ccc(O)cc2)cc(OC)c2c1oc1cc(O)c(O)cc12 [Compound 4, candidusin A]
[3]
  DPPH radicals scavenged: 32%
[5]
  IC50 at 24 h: 75.7 ± 5.6 µM
[12]
  IC50: 46.8 µM
[10]
  Effect on viability of PQ-treated cells: did not have any effect
[8]; [22]
  Effect on 6-OHDA-treated cell viability: had no effect
[1]
  Effect on ROS formation in 6-OHDA-treated cells: did not have any effect
[13]
  IC50: 19.3 µM
[6]; 10 µM
  Decrease of ROS formation in PQ-treated cells: 27%
[14]
  IC50: 77.6 µM

## COc1c(-c2ccccc2)cc(OC)c2c1oc1cc(O)c(O)cc12 [Compound 5, 4″-dehydroxycandidusin A]
[3]
  DPPH radicals scavenged: 49%
[3]; concentration of DPPH radical scavenging at 50%
  EC50: 101 ± 2.8 µM
[5]
  IC50 at 24 h: 78.9 ± 1.9 µM
[8]
  Neuroprotective effect in 6-OHDA model at tenfold reduced concentration: neuroprotective effect was not preserved
[15]
  IC50: 22.7 µM
[1]
  Reduction of ROS level in 6-OHDA-treated cells: 34%
[6]; 1 µM
  Decrease of ROS formation in PQ-treated cells: 19%
[6]; 10 µM
  Decrease of ROS formation in PQ-treated cells: 40%
[16]
  IC50: 34 µM

## CN1C(=O)C(Cc2c(O)cccc2O)NC(=O)C1Cc1ccccc1 (stereo not drawn) [Compound 6, mactanamide]
[3]
  DPPH radicals scavenged: 15%
[17]
  Influence on osteoclast differentiation: influence on osteoclast differentiation without any cytotoxicity
[18]
  Activity against Candida albicans: fungistatic activity
[4]
  Cytotoxicity against Neuro2a cells: not cytotoxic; also recorded: non-cytotoxic
[5]
  IC50 at 24 h: > 100 µM
[10]
  Effect on viability of PQ-treated cells: did not show any neuroprotective activity
[8]
  Neuroprotective effect in 6-OHDA model at tenfold reduced concentration: neuroprotective effect was preserved
[1]
  Reduction of ROS level in 6-OHDA-treated cells: 30%
[6]; 1 µM
  Decrease of ROS formation in PQ-treated cells: 32%
[6]; 10 µM
  Decrease of ROS formation in PQ-treated cells: 37%

## CN1C(=O)[C@]23CC4=CC=C[C@H](O)[C@H]4N2C(=O)[C@@]1(CO)SS3 [Gliotoxin]
[2]; [23]
  IC50: 5.2 µM

## C[n+]1ccc(-c2cc[n+](C)cc2)cc1 [PQ, paraquat]
[6]; 1 h after adding to the cell suspension
  Increase of ROS levels in Neuro2a cells by the neurotoxin: 39%
[6]; after 30 min
  Effect on ROS formation in Neuro2a cells: insignificant

## COC(=O)[C@]12Oc3ccc(-c4ccc5c(c4O)C(=O)C4=C(O)C[C@@H](C)[C@H](O)[C@@]4(C(=O)OC)O5)c(O)c3C(=O)C1=C(O)C[C@@H](C)[C@@H]2O [Secalonic acid A]
[19]
  Protection against MPTP-induced dopaminergic neuronal cell death: protected

## OCc1cc(O)c(Cc2cc(O)ccc2O)c(Cl)c1O [Terrestrol G]
[2]; read-out: DPPH-scavenging IC50
  IC50: 4.1 µM

## C[C@H]1CO[C@]2(C)Oc3cc(O)c4c(c3C[C@H]12)O[C@@]1(C)OC[C@H](C)[C@H]1C4 [Xyloketal B]
[2]
  Free radical scavenging in DPPH assay: scavenged free radicals
[20]
  Protection of PC12 cells against ischemia-induced cell injury and MPTP-induced neurotoxicity: protected

## cryptoechinulin D
[2]; [23]
  IC50: 23.6 µM

## neoechinulin E
[2]; [23]
  IC50: 46 µM
